Ten compounds from PubChem BioAssay AID248 (DTP/NCI, 2004) can be followed below.

The structures appear in SMILES notation. Inconclusive results and toxic doses are left out.

The assay relates to L1210 leukemia ip in BDF1 mice, survival T/C. Nature of the assay: NCI In Vivo Anticancer Drug Screen. Data for tumor model L1210 Leukemia (intraperitoneal) in B6D2F1 (BDF1) mice. The following applies: higher = longer survival. The essentials: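 Tumor was transplanted into mice, which were then dosed with test compound or vehicle alone. Survival was recorded for each group, and the treated figure was expressed relative to the control figure.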

As for `Nc1c2ccccc2c[n+]2ccccc12`, the T/C by setting is: (endpoint: mean survival time, dose: 50.0 mg/kg/injection, schedule: Q01DX009 (ip), vehicle: saline) 150 % of control; (endpoint: mean survival time, dose: 100.0 mg/kg/injection, schedule: Q01DX009 (ip), vehicle: saline) 163 % of control.

Take `CCCCCCCC(C)NCCOC(=O)c1ccc(N)cc1` (stereo not drawn): the T/C by setting is: (endpoint: mean survival time, dose: 75.0 mg/kg/injection, schedule: Q01DX001 (ip), vehicle: other) 117 % of control; (endpoint: mean survival time, dose: 150.0 mg/kg/injection, schedule: Q01DX001 (ip), vehicle: other) 101 % of control.

On to `[N-]=[N+]=Nc1ccc2cc3ccccc3nc2c1`, for which the T/C is, setting by setting: (endpoint: mean survival time, dose: 100.0 mg/kg/injection, schedule: Q04DX003 (ip), vehicle: acetone) 89 % of control; (endpoint: mean survival time, dose: 200.0 mg/kg/injection, schedule: Q04DX003 (ip), vehicle: acetone) 95 % of control; (endpoint: mean survival time, dose: 400.0 mg/kg/injection, schedule: Q04DX003 (ip), vehicle: acetone) 87 % of control.

As for `COC(=O)C(=O)CC(=O)c1cccc(Cl)c1`, the T/C reads like this: (endpoint: mean survival time, dose: 10.0 mg/kg/injection, schedule: Q04DX002 (ip), vehicle: Klucel (hydroxypropylcellulose) (HPC)) 92 % of control; (endpoint: mean survival time, dose: 20.0 mg/kg/injection, schedule: Q04DX002 (ip), vehicle: Klucel (hydroxypropylcellulose) (HPC)) 96 % of control; (endpoint: mean survival time, dose: 40.0 mg/kg/injection, schedule: Q04DX002 (ip), vehicle: Klucel (hydroxypropylcellulose) (HPC)) 105 % of control.

Take `CCC1(C)OC(=O)NC1=O` (stereo not drawn): the T/C reads like this: (endpoint: mean survival time, dose: 50.0 mg/kg/injection, schedule: Q01DX009 (ip), vehicle: saline with Tween-80) 96 % of control; (endpoint: mean survival time, dose: 100.0 mg/kg/injection, schedule: Q01DX009 (ip), vehicle: saline with Tween-80) 101 % of control; (endpoint: mean survival time, dose: 200.0 mg/kg/injection, schedule: Q01DX009 (ip), vehicle: saline with Tween-80) 86 % of control.

As for `CC1CC(C)(O)CC(C(O)CC2CC(=O)NC(=O)C2)C1=O` (stereo not drawn), the T/C is 109 % of control (endpoint: mean survival time, dose: 0.02 mg/kg/injection, schedule: Q03HX024 (ip), vehicle: saline); 118 % of control (endpoint: mean survival time, dose: 0.03 mg/kg/injection, schedule: Q01DX Z (ip), vehicle: other); 111 % of control (endpoint: mean survival time, dose: 0.04 mg/kg/injection, schedule: Q03HX016 (ip), vehicle: saline); 117 % of control (endpoint: mean survival time, dose: 0.04 mg/kg/injection, schedule: Q03HX024 (ip), vehicle: saline); 120 % of control (endpoint: mean survival time, dose: 0.08 mg/kg/injection, schedule: Q01DX005 (ip), vehicle: saline); 108 % of control (endpoint: mean survival time, dose: 0.08 mg/kg/injection, schedule: Q01DX005 (iv), vehicle: saline). Further, the T/C runs as follows: (endpoint: mean survival time, dose: 0.08 mg/kg/injection, schedule: Q01DX009 (ip), vehicle: saline) 155 % of control; (endpoint: mean survival time, dose: 0.08 mg/kg/injection, schedule: Q01DX Z (ip), vehicle: methylcellulose (MC)) 123 % of control; (endpoint: mean survival time, dose: 0.08 mg/kg/injection, schedule: Q01DX Z (ip), vehicle: other) 119 % of control; (endpoint: mean survival time, dose: 0.08 mg/kg/injection, schedule: Q03HX016 (ip), vehicle: saline) 117 % of control; (endpoint: mean survival time, dose: 0.15 mg/kg/injection, schedule: Q01DX005 (iv), vehicle: saline) 115 % of control; (endpoint: mean survival time, dose: 0.15 mg/kg/injection, schedule: Q01DX009 (ip), vehicle: saline) 87 % of control. The T/C by setting is: (endpoint: mean survival time, dose: 0.15 mg/kg/injection, schedule: Q01DX009 (oral), vehicle: saline) 109 % of control; (endpoint: mean survival time, dose: 0.15 mg/kg/injection, schedule: Q03HX024 (ip), vehicle: saline) 155 % of control; (endpoint: mean survival time, dose: 0.3 mg/kg/injection, schedule: Q01DX001 (iv), vehicle: saline) 105 % of control; (endpoint: mean survival time, dose: 0.3 mg/kg/injection, schedule: Q01DX009 (oral), vehicle: saline) 117 % of control; (endpoint: mean survival time, dose: 0.3 mg/kg/injection, schedule: Q01DX Z (ip), vehicle: methylcellulose (MC)) 155 % of control; (endpoint: mean survival time, dose: 0.3 mg/kg/injection, schedule: Q01DX Z (ip), vehicle: other) 157 % of control. The T/C is 161 % of control (endpoint: mean survival time, dose: 0.3 mg/kg/injection, schedule: Q03HX016 (ip), vehicle: saline); 157 % of control (endpoint: mean survival time, dose: 0.3 mg/kg/injection, schedule: Q03HX024 (ip), vehicle: saline); 105 % of control (endpoint: mean survival time, dose: 0.3 mg/kg/injection, schedule: Q11DX001 (ip), vehicle: saline); 112 % of control (endpoint: mean survival time, dose: 0.3 mg/kg/injection, schedule: Q14DX008 (ip), vehicle: saline); 110 % of control (endpoint: mean survival time, dose: 0.6 mg/kg/injection, schedule: Q01DX001 (iv), vehicle: saline); 112 % of control (endpoint: mean survival time, dose: 0.6 mg/kg/injection, schedule: Q01DX005 (iv), vehicle: saline). In addition, the T/C reads like this: (endpoint: mean survival time, dose: 0.6 mg/kg/injection, schedule: Q01DX009 (oral), vehicle: saline) 95 % of control; (endpoint: mean survival time, dose: 0.6 mg/kg/injection, schedule: Q01DX Z (ip), vehicle: methylcellulose (MC)) 92 % of control; (endpoint: mean survival time, dose: 0.6 mg/kg/injection, schedule: Q08DX002 (ip), vehicle: saline) 124 % of control; (endpoint: mean survival time, dose: 0.6 mg/kg/injection, schedule: Q11DX001 (ip), vehicle: saline) 114 % of control; (endpoint: mean survival time, dose: 0.6 mg/kg/injection, schedule: Q14DX008 (ip), vehicle: saline) 116 % of control; (endpoint: mean survival time, dose: 0.9 mg/kg/injection, schedule: Q01DX Z (ip), vehicle: other) 95 % of control. The T/C by setting is: (endpoint: mean survival time, dose: 1.2 mg/kg/injection, schedule: Q01DX001 (iv), vehicle: saline) 121 % of control; (endpoint: mean survival time, dose: 1.2 mg/kg/injection, schedule: Q01DX005 (ip), vehicle: saline) 88 % of control; (endpoint: mean survival time, dose: 1.2 mg/kg/injection, schedule: Q11DX001 (ip), vehicle: saline) 113 % of control; (endpoint: mean survival time, dose: 1.2 mg/kg/injection, schedule: Q11DX001 (oral), vehicle: saline) 109 % of control; (endpoint: mean survival time, dose: 1.2 mg/kg/injection, schedule: Q14DX008 (ip), vehicle: saline) 113 % of control; (endpoint: mean survival time, dose: 1.35 mg/kg/injection, schedule: Q01DX Z (ip), vehicle: other) 87 % of control. The T/C reads like this: (endpoint: mean survival time, dose: 2.4 mg/kg/injection, schedule: Q01DX001 (iv), vehicle: saline) 118 % of control; (endpoint: mean survival time, dose: 2.4 mg/kg/injection, schedule: Q04DX003 (ip), vehicle: saline) 154 % of control; (endpoint: mean survival time, dose: 2.4 mg/kg/injection, schedule: Q11DX001 (ip), vehicle: saline) 112 % of control; (endpoint: mean survival time, dose: 2.4 mg/kg/injection, schedule: Q11DX001 (oral), vehicle: saline) 101 % of control; (endpoint: mean survival time, dose: 2.4 mg/kg/injection, schedule: Q14DX008 (ip), vehicle: saline) 108 % of control; (endpoint: mean survival time, dose: 4.8 mg/kg/injection, schedule: Q11DX001 (ip), vehicle: saline) 108 % of control. The T/C was 100 % of control (endpoint: mean survival time, dose: 10.0 micrograms/kg/injection, schedule: Q01DX Z (ip), vehicle: other); 102 % of control (endpoint: mean survival time, dose: 20.0 micrograms/kg/injection, schedule: Q01DX Z (ip), vehicle: other); 110 % of control (endpoint: mean survival time, dose: 40.0 micrograms/kg/injection, schedule: Q01DX Z (ip), vehicle: other); 115 % of control (endpoint: mean survival time, dose: 80.0 micrograms/kg/injection, schedule: Q01DX Z (ip), vehicle: other); 154 % of control (endpoint: median survival time, dose: 2.0 mg/kg/injection, schedule: Q04DX003 (ip), vehicle: saline).

Take `Nc1snc2ncccc12`: the T/C was 97 % of control (endpoint: mean survival time, dose: 50.0 mg/kg/injection, schedule: Q01DX009 (ip), vehicle: Klucel (hydroxypropylcellulose) (HPC)); 92 % of control (endpoint: mean survival time, dose: 100.0 mg/kg/injection, schedule: Q01DX009 (ip), vehicle: Klucel (hydroxypropylcellulose) (HPC)); 89 % of control (endpoint: mean survival time, dose: 100.0 mg/kg/injection, schedule: Q04DX003 (ip), vehicle: Klucel (hydroxypropylcellulose) (HPC)); 103 % of control (endpoint: mean survival time, dose: 200.0 mg/kg/injection, schedule: Q01DX009 (ip), vehicle: Klucel (hydroxypropylcellulose) (HPC)); 87 % of control (endpoint: mean survival time, dose: 200.0 mg/kg/injection, schedule: Q04DX003 (ip), vehicle: Klucel (hydroxypropylcellulose) (HPC)).

With `Nc1ncnc(N)c1NC(=O)c1cccnc1`, the T/C runs as follows: (endpoint: mean survival time, dose: 100.0 mg/kg/injection, schedule: Q04DX003 (ip), vehicle: saline) 92 % of control; (endpoint: mean survival time, dose: 200.0 mg/kg/injection, schedule: Q04DX003 (ip), vehicle: saline) 96 % of control; (endpoint: mean survival time, dose: 400.0 mg/kg/injection, schedule: Q04DX003 (ip), vehicle: saline) 100 % of control.

On to `NCCCP(c1ccccc1)c1ccccc1`, for which the T/C by setting is: (endpoint: mean survival time, dose: 75.0 mg/kg/injection, schedule: Q01DX001 (ip), vehicle: saline) 105 % of control; (endpoint: mean survival time, dose: 150.0 mg/kg/injection, schedule: Q01DX001 (ip), vehicle: saline) 92 % of control.

`CN1CN(c2ccccc2)C2(CCN(C3(c4ccccc4)CCCCC3)CC2)C1=O`: the T/C is 102 % of control (endpoint: mean survival time, dose: 50.0 mg/kg/injection, schedule: Q01DX001 (ip), vehicle: saline); 92 % of control (endpoint: mean survival time, dose: 100.0 mg/kg/injection, schedule: Q01DX001 (ip), vehicle: saline); 94 % of control (endpoint: mean survival time, dose: 200.0 mg/kg/injection, schedule: Q01DX001 (ip), vehicle: saline).
